Assay [1] addresses T1, SyPII (Synechococcus elongatus, UniProt P0A3F4).
T1 construct: Strep-tag; made in house
Put plainly: ITC binding of small effector molecules to cyanobacterial SyPII. The arrangement: species or system Synechococcus elongatus PCC 7942. The procedure: (§1) To gain additional insights into the ligand binding properties of PpPII in comparison to cyanobacterial and chloroplastid PII proteins, isothermal titration calorimetry (ITC) experiments were performed using highly purified Strep-tagged or His-tagged recombinant PpPII, SyPII, CrPII, and PhyscoPII proteins (Supplementary Fig. S1) with different protein/ligand/ concentrations to determine the best fitting conditions of the binding model. The titration experiments were repeated with different protein preparations to confirm the reproducibility of the results. The raw isothermal data were fitted into one-binding site as well as three-sequential binding sites to define the best fitting model. Fitting using a one binding site model states an average Kd value for all available binding sites and the mean of the stoichiometry of bound ligands.
(§2) The ITC experiments were done using a VP-ITC microcalorimeter (MicroCal, LCC). All details for determination of binding constants for small effector molecules using ITC are fully described in the supplementary information. Heat isotherms of the dilution of the ligand in the cell buffer were collected in a blank run for each experiment in the absence of protein. The binding isotherms were calculated from received data and fitted to one-site and three-sequential binding sites models using the MicroCal ORIGIN software (Northampton) as described. All titrations were performed in duplicates with different purification batches of recombinant PII proteins. The association binding constant (Ka) was generated from the software by de-convolution and curve fitting. For calculation of dissociation constant (Kd), the Ka value was inversed.
(§3) Supplementary Information […]
(§4) Determination of Binding Constants for Small Effector Molecules using Isothermal […]
(§5) The binding of the small effector molecules to the recombinant PII proteins was tested using isothermal titration calarmity (ITC); VP-ITC microcalorimeter (MicroCal). All titrations were performed on 20°C using […] injection syringe with injection 6 µl or 10 µl of the tested ligands for 45 or 29 times, respectively into the cell (1.4 ml) with continuous stirring at 155 rpm. All tested ligands were high grade, prepared freshly in the same buffer of the protein and purchased from Sigma-Aldrich. Heat isotherms for the dilution of the ligand in the cell buffer were collected in a blank run in the absence of protein. The received calorimetric data were analyzed using MicroCal Origin software and fitted into one-site and three-sequential binding sites models, as indicated by the manufacture for calculation of binding isotherms9. For data reproducibility, the titrations were performed in duplicates with different purification batches of recombinant PII proteins. The association binding constant (Ka) was generated from the software by de-convolution and curve fitting. For calculation of dissociation constant (Kd), the Ka value was inversed. […]
For determination the binding isotherms of cyanobacterial SyPII protein, a strep-tagged recombinant protein (20 µM trimeric concentration) was overexpressed and used as described previously9, 15, in a buffer composed of 10 mM Hepes-NaOH, 50 mM KCl, 50 mM NaCl, and 1

The target in assay [2] is CrPII. Put plainly: ITC binding of small effector molecules to green algal CrPII. The arrangement: species or system Chlamydomonas reinhardtii. Here is the method: as §1, §2, §3, §4, §5
In assay [3] the target is PpPII (Porphyra purpurea, UniProt P51254). Put plainly: ITC binding of small effector molecules to red algal PpPII. Here is the method: as §1, §2, §3, §4
The binding of the small effector molecules to the recombinant PII proteins was tested using isothermal titration calarmity (ITC); VP-ITC microcalorimeter (MicroCal). All titrations were performed on 20°C using […] injection syringe with injection 6 µl or 10 µl of the tested ligands for 45 or 29 times, respectively into the cell (1.4 ml) with continuous stirring at 155 rpm. All tested ligands were high grade, prepared freshly in the same buffer of the protein and purchased from Sigma-Aldrich. Heat isotherms for the dilution of the ligand in the cell buffer were collected in a blank run in the absence of protein. The received calorimetric data were analyzed using MicroCal Origin software and fitted into one-site and three-sequential binding sites models, as indicated by the manufacture for calculation of binding isotherms9. For data reproducibility, the titrations were performed in duplicates with different purification batches of recombinant PII proteins. The association binding constant (Ka) was generated from the software by de-convolution and curve fitting. For calculation of dissociation constant (Kd), the Ka value was inversed.
For determination the binding isotherms of red algal PpPII protein, a buffer system composed of […]
used. For determination ATP and ADP binding isotherms upon the binding to PpPII protein, His- […]
against 2 mM ATP or 2 mM ADP. For determination of ATP and ADP binding isotherms in […]
concentration) was titrated against 0.5 mM of ATP or 1 mM ADP, respectively. However, for […]
of 1 mM of ATP or 1 mM ADP. […]

Consider one compound from paper PMC5768801, “The PII signaling protein from red algae represents an evolutionary link between cyanobacterial and Chloroplastida PII proteins” (Scientific Reports, 2018).

Molecules are shown by their SMILES. Several values for one entry are separate records, joined by “and”; a condition that tells them apart may be missing. Equal entries are not always repeated. Entries after “also recorded” stand apart in the source; their conditions may differ. Where two headings read alike, the source gives them in different places.

T1 sequence (P0A3F4 whole entry): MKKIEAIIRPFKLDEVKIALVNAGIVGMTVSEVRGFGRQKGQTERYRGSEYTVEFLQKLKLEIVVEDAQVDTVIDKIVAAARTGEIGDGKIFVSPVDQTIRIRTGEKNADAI
PpPII, sequence (P51254 whole entry): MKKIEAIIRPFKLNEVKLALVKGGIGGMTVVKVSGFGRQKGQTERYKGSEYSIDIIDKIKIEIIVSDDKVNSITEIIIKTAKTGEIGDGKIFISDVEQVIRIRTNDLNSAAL

`Nc1ncnc2c1ncn2[C@@H]1O[C@H](COP(=O)(O)OP(=O)(O)O)[C@@H](O)[C@H]1O` [ADP]: the “ADP concentration at which the enthalpy reached a maximum (biphasic titration curve)” value in assay [1] (ADP titrated in the presence of 1 mM 2-OG) worked out at 80.0 ± 7.1 µM. The Kd in assay [1] (Average Kd (one-site binding model), in presence 2-OG (1 mM) and 150 µM ADP) was 45.8 ± 44 µM; in assay [1] (Kd1 (three-sites binding model), in presence 2-OG (1 mM) and 150 µM ADP), 10.7 ± 1.9 µM; in assay [1] (Kd2 (three-sites binding model), in presence 2-OG (1 mM) and 150 µM ADP), 26.4 ± 4.2 µM; in assay [1] (Kd3 (three-sites binding model), in presence 2-OG (1 mM) and 150 µM ADP), 101 ± 103 µM; in assay [3] (in presence 2-OG (1 mM), read-out: Average Kd (one-site binding model)), 10.8 ± 2.8 µM; in assay [3] (in presence 2-OG (1 mM), read-out: Kd1 (three-sites binding model)), 10.3 ± 10 µM. In addition, the Kd in assay [3] (in presence 2-OG (1 mM), read-out: Kd2 (three-sites binding model)) is 43.6 ± 4.7 µM; in assay [3] (in presence 2-OG (1 mM), read-out: Kd3 (three-sites binding model)) it was 125.9 ± 0.9 µM; in assay [3] (titrant alone, read-out: Average Kd (one-site binding model)), ~7.2 µM and 7.2 µM; in assay [3] (titrant alone, read-out: Kd1 (three-sites binding model)), 3.4 ± 0.5 µM; in assay [3] (titrant alone, read-out: Kd2 (three-sites binding model)), 15.2 ± 0.7 µM; in assay [3] (titrant alone, read-out: Kd3 (three-sites binding model)), 132 ± 2.7 µM. In addition, the “N, number of calculated binding sites (one-site binding model)” value in assay [1] (in presence 2-OG (1 mM) and 150 µM ADP) is reported as 4.0; in assay [3] (in presence 2-OG (1 mM)), 2.7; in assay [3] (titrant alone, per PII trimer), 2.7. Besides, the results for the “Average Kd (one-site binding model)” value in assay [2] (in presence 2-OG (2 mM)) and in assay [2] (titrant alone) were “no ADP binding” and “unable to notice any binding; also recorded: No binding”, respectively. In addition, the “Kd1 (three-sites binding model)” value in assay [2] (in presence 2-OG (2 mM)) and in assay [2] (titrant alone) was “No binding” in each case. In addition, the “Kd2 (three-sites binding model)” value in assay [2] (in presence 2-OG (2 mM)) and in assay [2] (titrant alone) was “No binding” throughout. Also, the “Kd3 (three-sites binding model)” value in assay [2] (in presence 2-OG (2 mM)) and in assay [2] (titrant alone) was “No binding” in each case.
